# Literature values as cited in patent US9745365B2, “Anti-influenza B virus hemagglutinin antibodies and methods of use” (priority 2014, dated 2017).
# Molecular target: influenza B neuraminidase (Influenza B virus, UniProt P03474)
# Conditions: higher
# Sequence of influenza B neuraminidase (P03474 whole entry): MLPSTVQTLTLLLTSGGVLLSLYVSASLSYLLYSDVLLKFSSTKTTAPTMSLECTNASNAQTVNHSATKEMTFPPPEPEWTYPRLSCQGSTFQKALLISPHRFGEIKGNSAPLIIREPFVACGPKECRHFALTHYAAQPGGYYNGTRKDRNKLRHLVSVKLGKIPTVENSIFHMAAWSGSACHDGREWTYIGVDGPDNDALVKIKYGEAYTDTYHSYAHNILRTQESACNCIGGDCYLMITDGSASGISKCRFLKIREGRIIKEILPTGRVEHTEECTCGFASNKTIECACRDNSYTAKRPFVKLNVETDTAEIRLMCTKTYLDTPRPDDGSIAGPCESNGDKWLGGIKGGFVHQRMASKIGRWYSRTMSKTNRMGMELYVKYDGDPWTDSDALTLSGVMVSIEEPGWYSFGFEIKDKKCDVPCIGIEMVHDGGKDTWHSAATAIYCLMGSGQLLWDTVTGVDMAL
structure (smiles),measurement,value
CCOC(=O)C1=C[C@@H](OC(CC)CC)[C@H](NC(C)=O)[C@@H](N)C1 [oseltamivir phosphate],IC50 for influenza B neuraminidase compared to that for influenza A neuraminidase,10 fold
